Measurements reported in PMC12162873, “Modulating phosphatase DUSP22 with BML-260 ameliorates skeletal muscle wasting via Akt independent JNK-FOXO3a repression” (EMBO Molecular Medicine, 2025).
Several values for one entry are separate records, joined by “and”; a condition that tells them apart may be missing. Equal values may be shown once. Entries after “also recorded” stand apart in the source; their conditions may differ. Read-outs that look alike come from different tables or passages of the source.

Tests used:
[1] = Pharmacokinetics analysis, TA muscle (LC-MS/MS); assay type: in vivo, mouse; details: for concentration at 0.5 h / concentration at 1 h / concentration at 1.5 h / concentration at 2 h / concentration at 6 h: male, C57BL/6J, mouse, tibialis anterior (TA) muscle, intraperitoneal, 5 mg/kg
Method: (§1) Assessment of BML-260 pharmacokinetics (PK) was carried out by the company Chaon, Yongin-si, Republic of Korea. BML-260 was administered intraperitoneally at a dose of 5 mg/kg in an injection volume of 10 mL/kg. A total of 21 6-week-old male C57BL/6J mice were divided into two groups as follows: 1) PK (plasma) group (3 mice) and 2) PK (TA muscle) group (18 mice across 6 time points).
For the PK (plasma) group, blood samples were collected at 0.5, 1, 1.5, 2, 6, 12, and 24 h after administration, using orbital sinus collection. Blood was centrifuged to obtain plasma that was then stored at −80 °C. For the PK (TA muscle) group, mice were euthanized at 0.5, 1, 1.5, 2, 6, and 12 h post-administration. The TA muscle was weighed and stored at −80 °C.
(§2) BML-260 levels in plasma and tissue samples were analyzed with liquid chromatography-tandem mass spectrometry (LC-MS/MS) using an Agilent 1200 HPLC system coupled with an AB Sciex 4000 QTrap MS/MS (Agilent Technologies, CA, USA). Quantification limits were determined based on a signal-to-noise ratio greater than 10, with precision below 20% and accuracy between 80% and 120%.

[2] = Pharmacokinetics analysis, plasma (LC-MS/MS); assay type: in vivo, mouse; parameters: peak plasma concentration after injection: unit not given here; details: for Plasma Conc. / Plasma Conc., Mean / concentration at 0.25 h / concentration at 0.5 h / concentration at 1.5 h / concentration at 2 h / concentration at 8 h: 5 mg/kg (IP); for concentration at 0.25 h / concentration at 0.5 h / concentration at 1.5 h / concentration at 2 h / concentration at 8 h: intraperitoneal, 5 mg/kg
Method: as §1
[…] Blood was centrifuged to obtain plasma that was then stored at −80 °C. For the PK (TA muscle) group, mice were euthanized at 0.5, 1, 1.5, 2, 6, and 12 h post-administration. The TA muscle was weighed and stored at −80 °C.
as §2

C2C12 myotubes = experiment: SUnSET assay of protein synthesis; assay type: cell-based, mouse; details: 10 μM Dex 24 h, 12.5 μM BML-260
Method: The surface sensing of translation (SUnSET) assay was used to measured protein synthesis, in accordance with the published protocol (Vinel et al, [2018]). In brief, 1 μg/mL puromycin was added to the myotube cultures and cell lysates were then harvested 10 min later. Western blotting was carried out using an anti-puromycin 12D10 antibody (MABE343; Millipore).

[3] = parameters: method as in ref [9] Feng et al, 2019; details: pH range 3 to 7.4, HPLC; ref [9] Feng et al, 2019; cited from earlier work
[4] = 5 mg/kg IP, as read by referee #2

## O=C(O)c1ccc(N2C(=O)C(=Cc3ccccc3)SC2=S)cc1 (stereo in doubt) [BML-260]
[1]; 5 mg/kg (IP), 0.5 h, TA muscle, dilution factor 4, individual animals
  Muscle Conc.: 0.350 µg/g and 0.280 µg/g
[1]; 5 mg/kg (IP), 0.5 h, TA muscle, individual animals
  Muscle Conc. before dilution factor: 87.62 ng/mL and 70.09 ng/mL
[1]; 5 mg/kg (IP), 1 h, TA muscle, dilution factor 4, individual animals
  Muscle Conc.: 0.335 µg/g and 0.367 µg/g
[1]; 5 mg/kg (IP), 1 h, TA muscle, individual animals
  Muscle Conc. before dilution factor: 83.78 ng/mL and 91.76 ng/mL
[1]; 5 mg/kg (IP), 1.5 h, TA muscle, dilution factor 4, individual animals
  Muscle Conc.: 0.220 µg/g and 0.191 µg/g
[1]; 5 mg/kg (IP), 1.5 h, TA muscle, individual animals
  Muscle Conc. before dilution factor: 54.90 ng/mL and 47.79 ng/mL
[1]; 5 mg/kg (IP), 2 h, TA muscle, dilution factor 4, individual animals
  Muscle Conc.: 0.165 µg/g and 0.133 µg/g
[1]; 5 mg/kg (IP), 2 h, TA muscle, individual animals
  Muscle Conc. before dilution factor: 41.20 ng/mL and 33.33 ng/mL
[1]; 5 mg/kg (IP), 6 h, TA muscle, dilution factor 4, individual animals
  Muscle Conc.: 0.013 µg/g and 0.024 µg/g
[1]; 5 mg/kg (IP), 6 h, TA muscle, individual animals
  Muscle Conc. before dilution factor: 3.25 ng/mL and 5.89 ng/mL
[1]; 5 mg/kg (IP), 12 h, TA muscle, dilution factor 4, individual animals
  Muscle Conc.: BQL
[1]; 5 mg/kg (IP), 12 h, TA muscle, individual animals
  Muscle Conc. before dilution factor: 1.21 ng/mL and 0.79 ng/mL and 1.75 ng/mL
[1]; 5 mg/kg (IP), 12 h, TA muscle, n = 3
  Muscle Conc., Mean: BQL
[1]; 5 mg/kg IP
  delay until peak detection in skeletal muscle (tibialis anterior): approximately 20 min
  skeletal muscle level relative to that needed for enzyme inhibition: may not reach levels where it can function as an enzymatic inhibitor
[1]; [4]
  peak muscle level: ~ 0.35 ug/g tissue
  time of peak muscle level: ~ 1 hour
[1]; crude estimate of referee #2 with 1 g tissue = 1 ml
  half maximal inhibitor concentration in muscle: ~ 0.5 uM
[1]; 5 mg/kg (IP), 0.5 h, TA muscle, dilution factor 4, individual animals, read-out: Muscle Conc.
  concentration at 0.5 h: 338 ng/g
[1]; 5 mg/kg (IP), 0.5 h, TA muscle, individual animals, read-out: Muscle Conc. before dilution factor
  concentration at 0.5 h: 84.6 ng/mL
[1]; 5 mg/kg (IP), 0.5 h, TA muscle, n = 3, read-out: Muscle Conc., Mean
  concentration at 0.5 h: 323 ng/g
[1]; 5 mg/kg (IP), 1 h, TA muscle, dilution factor 4, individual animals, read-out: Muscle Conc.
  concentration at 1 h: 347 ng/g
[1]; 5 mg/kg (IP), 1 h, TA muscle, individual animals, read-out: Muscle Conc. before dilution factor
  concentration at 1 h: 86.7 ng/mL
[1]; 5 mg/kg (IP), 1 h, TA muscle, n = 3, read-out: Muscle Conc., Mean
  concentration at 1 h: 350 ng/g
[1]; 5 mg/kg (IP), 1.5 h, TA muscle, dilution factor 4, individual animals, read-out: Muscle Conc.
  concentration at 1.5 h: 231 ng/g
[1]; 5 mg/kg (IP), 1.5 h, TA muscle, individual animals, read-out: Muscle Conc. before dilution factor
  concentration at 1.5 h: 57.7 ng/mL
[1]; 5 mg/kg (IP), 1.5 h, TA muscle, n = 3, read-out: Muscle Conc., Mean
  concentration at 1.5 h: 214 ng/g
[1]; 5 mg/kg (IP), 2 h, TA muscle, dilution factor 4, individual animals, read-out: Muscle Conc.
  concentration at 2 h: 166 ng/g
[1]; 5 mg/kg (IP), 2 h, TA muscle, individual animals, read-out: Muscle Conc. before dilution factor
  concentration at 2 h: 41.5 ng/mL
[1]; 5 mg/kg (IP), 2 h, TA muscle, n = 3, read-out: Muscle Conc., Mean
  concentration at 2 h: 155 ng/g
[1]; 5 mg/kg (IP), 6 h, TA muscle, dilution factor 4, individual animals, read-out: Muscle Conc.
  concentration at 6 h: 16 ng/g
[1]; 5 mg/kg (IP), 6 h, TA muscle, individual animals, read-out: Muscle Conc. before dilution factor
  concentration at 6 h: 3.9 ng/mL
[1]; 5 mg/kg (IP), 6 h, TA muscle, n = 3, read-out: Muscle Conc., Mean
  concentration at 6 h: 17 ng/g
[2]; 0.25 h, individual animals
  Plasma Conc.: 15.310 ng/mL and 14.890 ng/mL
[2]; 0.5 h, individual animals
  Plasma Conc.: 9.450 ng/mL and 9.888 ng/mL
[2]; 1.5 h, individual animals
  Plasma Conc.: 6.230 ng/mL and 6.772 ng/mL
[2]; 2 h, individual animals
  Plasma Conc.: 5.288 ng/mL and 4.936 ng/mL
[2]; 8 h, individual animals
  Plasma Conc.: 0.232 ng/mL and 0.333 ng/mL
[2]; 12 h, individual animals
  Plasma Conc.: BQL
[2]; 12 h, n = 3
  Plasma Conc., Mean: BQL
[2]; 24 h, individual animals
  Plasma Conc.: BQL
[2]; 24 h, n = 3
  Plasma Conc., Mean: BQL
[2]; 5 mg/kg IP
  detection in plasma after IP delivery: detectable in the plasma immediately after intraperitoneal; also recorded: could be detected in the plasma
[2]; [4]
  time by which plasma concentration is undetectable: ~ 8 hours
[2]; 5 mg/kg IP, as read by referee #2 from the PK figure
  peak plasma concentration after injection: 16
[2]; male, C57BL/6J, mouse, plasma, 0.25 h, individual animals, read-out: Plasma Conc.
  concentration at 0.25 h: 18.1 ng/mL
[2]; male, C57BL/6J, mouse, plasma, 0.25 h, n = 3, read-out: Plasma Conc., Mean
  concentration at 0.25 h: 16.1 ng/mL
[2]; male, C57BL/6J, mouse, plasma, 0.5 h, individual animals, read-out: Plasma Conc.
  concentration at 0.5 h: 11.4 ng/mL
[2]; male, C57BL/6J, mouse, plasma, 0.5 h, n = 3, read-out: Plasma Conc., Mean
  concentration at 0.5 h: 10.3 ng/mL
[2]; male, C57BL/6J, mouse, plasma, 1.5 h, individual animals, read-out: Plasma Conc.
  concentration at 1.5 h: 6.66 ng/mL
[2]; male, C57BL/6J, mouse, plasma, 1.5 h, n = 3, read-out: Plasma Conc., Mean
  concentration at 1.5 h: 6.55 ng/mL
[2]; male, C57BL/6J, mouse, plasma, 2 h, individual animals, read-out: Plasma Conc.
  concentration at 2 h: 4.85 ng/mL
[2]; male, C57BL/6J, mouse, plasma, 2 h, n = 3, read-out: Plasma Conc., Mean
  concentration at 2 h: 5.03 ng/mL
[2]; male, C57BL/6J, mouse, plasma, 8 h, individual animals, read-out: Plasma Conc.
  concentration at 8 h: 0.248 ng/mL
[2]; male, C57BL/6J, mouse, plasma, 8 h, n = 3, read-out: Plasma Conc., Mean
  concentration at 8 h: 0.271 ng/mL
[2]; male, C57BL/6J, mouse, plasma, 5 mg/kg IP, as read by referee #2
  half-life: ~1 h
C2C12 myotubes
  protein synthesis (puromycin incorporation): prevented the reduction in protein synthesis
[3]
  stability at pH values within normal physiological conditions: predicted to be stable
